# Measured values from patent US9523097B2, “Engineering rubber production in plants” (The United States of America, as represented by the …, priority 2013, dated 2016).
# Read-outs that look alike come from different tables or passages of the source.
# Assays:
# guayule leaf explants = assay: Resistance of regenerated shoot on media with spectinomycin; type: cell-based, Parthenium argentatum
# Protocol: To confirm whether the guayule explants were resistant to spectinomycin, leaf explants from control plants were cultured on regeneration DKW media that contained 0.75 mg·L^−1 BA and 0.125 mg·L^−1 NAA at various spectinomycin antibiotic levels. Several concentration of spectinomycin (0, 2, 4, 6, 8, 10, 12, 14, 16, 18 and 20 mg·L^−1) was added to the media to confirm the effects of antibiotic concentration on regeneration.
# guayule explants = conditions: for Size of Callus with multi shoots: 5-point scale
# Protocol: To evaluate the effect of calcium nitrate on guayule regeneration, guayule explants were cultured on MS basal medium with plant growth regulators (PGRs) (1.0 mg·L^−1 BA and 0.1 mg·L^−1 NAA) and calcium nitrate. […] calcium nitrate concentrations, 0, 100, 250, 500, 750, 1000 and 1500 mg·L^−1, were tested (Table 3). Calcium nitrate was added to the culture medium before adjusting the pH to 5.7, prior to autoclaving. DKW basal medium (0.75 mg·L^−1 BA and 0.25 mg·L^−1 NAA) was used as a control.
smiles,measurement,setting,value
CN[C@@H]1[C@H](O)[C@H](NC)[C@H]2O[C@@]3(O)C(=O)C[C@@H](C)O[C@H]3O[C@@H]2[C@H]1O [spectinomycin],concentration fatal to guayule plants,guayule leaf explants,about 12 mg/L
same,Callus formation and shoot emergence,"guayule leaf explants; 8 mg·L−1, DKW regeneration medium",not affected
same,Callus formation and shoot emergence,"guayule leaf explants; 10 mg·L−1, DKW regeneration medium",significantly reduced
same,Callus formation and shoot emergence,"guayule leaf explants; 12 mg·L−1 or higher, DKW regeneration medium",completely inhibited
"O.O.O.O.O=[N+]([O-])[O-].O=[N+]([O-])[O-].[Ca+2] [Calcium Nitrate, calcium nitrate tetrahydrate]",Size of Callus with multi shoots,"guayule explants; 100 mg·L−1, DKW with 0.75 mg·L−1 BA and 0.25 mg·L−1 NAA",3.0b
same,Number of elongated shoots,"guayule explants; 100 mg·L−1, DKW with 0.75 mg·L−1 BA and 0.25 mg·L−1 NAA, per total explants",6/30
same,Size of Callus with multi shoots,"guayule explants; 100 mg·L−1, MS with 1.0 mg·L−1 BA and 0.1 mg·L−1 NAA",4.5a
same,Number of elongated shoots,"guayule explants; 100 mg·L−1, MS with 1.0 mg·L−1 BA and 0.1 mg·L−1 NAA, per total explants",3/30
same,Size of Callus with multi shoots,"guayule explants; 250 mg·L−1, DKW with BA/NAA",2.9b
same,Number of elongated shoots,"guayule explants; 250 mg·L−1, DKW with BA/NAA, per total explants",3/30
same,Size of Callus with multi shoots,"guayule explants; 250 mg·L−1, MS with BA/NAA",4.4a
same,Number of elongated shoots,"guayule explants; 250 mg·L−1, MS with BA/NAA, per total explants",13/30
same,Size of Callus with multi shoots,"guayule explants; 500 mg·L−1, DKW with BA/NAA",2.2bc
same,Number of elongated shoots,"guayule explants; 500 mg·L−1, DKW with BA/NAA, per total explants",0/30
same,Size of Callus with multi shoots,"guayule explants; 500 mg·L−1, MS with BA/NAA",4.1ab
same,Number of elongated shoots,"guayule explants; 500 mg·L−1, MS with BA/NAA, per total explants",6/30
same,Size of Callus with multi shoots,"guayule explants; 1000 mg·L−1, DKW with BA/NAA",2.0c
same,Number of elongated shoots,"guayule explants; 1000 mg·L−1, DKW with BA/NAA, per total explants",0/30
same,Size of Callus with multi shoots,"guayule explants; 1000 mg·L−1, MS with BA/NAA",3.6c
same,Number of elongated shoots,"guayule explants; 1000 mg·L−1, MS with BA/NAA, per total explants",0/30
same,Size of Callus with multi shoots,"guayule explants; 1500 mg·L−1, DKW with BA/NAA",1.7 days
same,Number of elongated shoots,"guayule explants; 1500 mg·L−1, DKW with BA/NAA, per total explants",0/30
same,Size of Callus with multi shoots,"guayule explants; 1500 mg·L−1, MS with BA/NAA",2.1 days
same,Number of elongated shoots,"guayule explants; 1500 mg·L−1, MS with BA/NAA, per total explants",0/30
same,effect on elongated shoots,guayule explants; higher concentrations,negative effect
same,Number of elongated shoots,"guayule explants; moderate concentrations (0, 100, 250, 500 and 1000 mg·L−1), MS and DKW medium",significantly improved
